Article PMC2607020, “An Unusual Helix Turn Helix Motif in the Catalytic Core of HIV-1 Integrase Binds Viral DNA and LEDGF” (PLoS ONE, 2009)
“Also recorded” adds a separate entry of the source. Where two headings read alike, the source gives them in different places.

How the values were obtained:
[1] = target: T1, LEDGF-IBD (wt IBD) (Homo sapiens, UniProt O75475); test: Fluorescence anisotropy titration of fluorescein-grafted HTHi by wt LEDGF-IBD; assay type: binding; conditions: fluorescein-grafted HTHi 50 nM titrated by wt LEDGF-IBD; pH 6.0; 5°C
T1 construct: The wt IBD is the fragment 347–471 of LEDGF (GST removed); GST (cleaved yes)
T1 sequence (O75475 347-471): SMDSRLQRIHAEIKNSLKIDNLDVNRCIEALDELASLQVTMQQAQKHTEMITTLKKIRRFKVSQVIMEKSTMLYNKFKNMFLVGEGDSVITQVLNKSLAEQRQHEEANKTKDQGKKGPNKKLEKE
Text: (§1) Like the whole protein, these contain no Trp.

[2] = test system: Asp366Asn-IBD variant of LEDGF; conditions: fluorescence anisotropy; fluorescein-labeled HTHi 50 nM; pH 6.0; 5°C
Method: The wt IBD is the fragment 347–471 of LEDGF (GST removed) [33], [51], [52]. The mutant IBD is the Asp366Asn version of the former. Like the whole protein, these contain no Trp. […] The proteins were used in the “reaction buffer” containing 20 mM HEPES (pH 6.8), 10 mM MgCl2 and 10 mM DTT.
Intrinsic fluorescence quantum yield and fluorescence anisotropy studies were carried out with a Jobin-Yvon Fluoromax II instrument (HORIBA Jobin-Yvon, France) equipped with an ozone-free 150 W xenon lamp. The samples (800 µl) were placed at 5°C in thermally jacketed 1 cm×0.5 cm quartz cells. At least ten measurements for each titration point were recorded with an integration time of 5 sec.
The fluorescence anisotropy of the fluorescein-conjugated version of HTHi (50 nM) titrated by wt and mutated IBD in the “assay buffer” was used to evaluate the Kd of the LEDGF-HTHi complex.

[3] = test system: IN; conditions: ref [30]; cited from earlier work
Method: In a previous study, based on the intrinsic fluorescence properties of IN conferred by its six Trp residues, we have shown the ability of peptide INH5 (Table 1a) to interact with IN with a concentration midpoint (C0.5) of 168 nM [30]. […] There are examples in the literature showing that the so-called stabilizing helix of HTH motifs is involved in the protein dimerization. This is the case of topoisomerase II, in which the binding site to DNA is fashioned from the interaction of two HTH motifs. The implication of the α5 helix in the enzyme structure and activity has been highlighted in our previous report showing that peptide INH ...

[4] = test system: wt IN; conditions: intrinsic fluorescence of IN; similar conditions; ref [30]; cited from earlier work
Method: In a previous study, based on the intrinsic fluorescence properties of IN conferred by its six Trp residues, we have shown the ability of peptide INH5 (Table 1a) to interact with IN with a concentration midpoint (C0.5) of 168 nM [30].

[5] = target: CRE (cAMP response element); conditions: negative control sequence CRE; ref [43]; read-out: Kd (non-specific binding); cited from earlier work
Text: The behavior of peptide HTHi is similar to that of peptide K156.

[6] = test system: viral DNA; test: Specific binding of peptide to viral DNA (general statement); set-up: species or system HIV-1; conditions: Discussion
[7] = test system: LTR34f5′; conditions: LTR34f5′ vs LTR34fm; ref [43]; cited from earlier work
Text: (§2) In a previous work we pointed out the importance of the conformational entropy in the binding of the α4 helix to the viral DNA. In order to reduce this effect, we had designed an analog of the α4 peptide that had its secondary structure stabilized by helicogenic mutations (Gly149Ala, Ile161Leu, Ile162Leu and Gly163Ala). The resulting peptide, K156, was a good mimic of the α4 helix in the protein context and was better organized for binding than peptide α4.

[8] = target: LTR34fm; conditions: ref [43], cited from earlier work
Text: as §2

[9] = Circular dichroism of free peptide (secondary structure, oligomerisation); assay type: physicochemical
Text: They were made according to the Fmoc procedure, as already reported for peptide α4, for its “stabilized” analogue i.e., peptide K156, and for the peptide INH5, derived from the α5 helix, [43]. Peptide α4 reproduces the α4 helix sequence of IN; peptide K156 is a variant of the α4 peptide resulting from the replacement of weakly helicogenic residues by more helicogenic ones in several biologically irrelevant positions; peptide INH5 contains both the α5 helix and the turn connecting the α5 helix to the α4 helix. The peptides HTHi and wt HTHi reproduce the sequences of the HTHi motifs in the IN-Phe185Lys variant and in wt IN respectively. A version of the HTHi peptide with a carboxyfluorescein at the N-terminus has also been prepared. Tyr or Trp aromatic residues, when absent in the native sequences, were purposely added in order to enable peptide quantification by UV absorption spectra. Peptide concentrations were determined using a molar absorption coefficient at 280 nm equal to 1 280 M^−1 cm^−1 for the tyrosine-containing peptides α4, INH5 and HTHi and 5600 M^−1 cm^−1 for the tryptophane-containing peptides K156 and […].
CD spectra were recorded on a Jobin-Yvon CD6 dichrograph (HORIBA Jobin-Yvon, France). Peptide concentrations varied from 5 to 25 µM in the “assay buffer”, containing 40 mM sodium phosphate, 0.5 mM EDTA, pH 6.0. The samples, incubated 10 min at the chosen temperature to allow the solutions to reach their equilibrium state, were placed in thermally jacketed cells with a 1 mm path length. The spectra, recorded in 1 nm steps, were averaged over ten scans and corrected for the base line, then presented as differential molar absorptivities per residue, Δε (M^−1 cm^−1), for peptides, and as difference spectra (complex minus DNA), for peptide-DNA complexes. For the HTHi-LTR interaction, aliquots of peptide were added to LTR34 (10 µM) and the control spectrum of unliganded LTR was subtracted from that of the complex. Recall that in a simple random coil – α helix equilibrium, the α-helix content of peptides could be approximated by the relation: Pα = −[Δε222×10] (Pα: percentage of α helix; Δε222: differential molar absorptivity per residue at 222 nm).

[10] = test system: wt IN; test: Quenching of the intrinsic fluorescence of wt IN by peptide; assay type: binding, HIV-1; conditions: wt IN 100 nM monomer; Trp fluorescence quenching, excitation 295 nm; 20 mM HEPES pH 6.8, 10 mM MgCl2, 10 mM DTT; 5°C
Method: as §1
The intrinsic fluorescence of wt IN was measured at 100 nM monomer concentration, in the “reaction buffer” (see above). The Trp residues were excited at 295 nm and emission was recorded between 305 and 450 nm, with 2 nm and 5 nm excitation and emission slit widths, respectively. A maximal emission was obtained at 337 nm. Quenching of the fluorescence of IN following the addition of HTHi or of peptide α4 (devoid of Trp) was expressed as 1-F/F0, where F0 is the fluorescence of the enzyme in the absence of peptide.

[11] = target: CRE (cAMP response element); test: Fluorescence anisotropy titration of CRE (negative control sequence) by peptide; conditions: CRE 20 nM, curve fitting, ±10% uncertainty, 40 mM sodium phosphate, 0.5 mM EDTA, pH 6.0, 5°C, read-out: Kd (non-specific binding)
Text: (§3) The oligonucleotides (Table 1b) were purchased from Cybergene ESGS (France) and Eurogentec (Belgium). The choice of monomolecular hairpin-forming oligonucleotides, rather than bimolecular duplex-forming ones, was motivated by the need for stability under the low concentrations inherent to the fluorescence anisotropy experiments. The fluorescein reporter group is grafted either to the central T nucleotide (LTR34fm) or to the 5′ extremity (LTR34f5′ and CRE). The CRE (cAMP responsive element) sequence was used as negative control. The version of LTR34 without fluorescein was used in CD studies.
(§4) Fluorescence anisotropy titration, [75]. Fluorescein-labeled oligonucleotides were used at 20 nM in the “assay buffer” (see Table 1b and above). With fluorescein as fluorophore, excitation and emission were at 488 nm and 516 nm, with 4 nm and 5 nm slits, respectively. Peptides were added to DNA as successive aliquots. For each anisotropy measurement, the parallel [drawing 1] and the perpendicular [drawing 2] intensities of the background solution (i.e., buffer and protein contributions) were subtracted from those of the sample.

[12] = target: LTR34fm; test: Fluorescence anisotropy titration of LTR34fm by peptide; assay type: binding, HIV-1; conditions: LTR34fm 20 nM, curve fitting, ±10% uncertainty, 40 mM sodium phosphate, 0.5 mM EDTA, pH 6.0, 5°C
Text: as §3, §4

[13] = target: LTR34f5′; test: Fluorescence anisotropy titration of LTR34f5′ by peptide; assay type: binding, HIV-1
Text: as §3, §4

[14] = test system: LTR34; test: Circular dichroism of peptide-DNA complex (difference spectrum); assay type: binding, HIV-1; conditions: HTHi 6 µM + LTR34 10 µM, 40 mM sodium phosphate, 0.5 mM EDTA, pH 6.0
Text: as §3
CD spectra were recorded on a Jobin-Yvon CD6 dichrograph (HORIBA Jobin-Yvon, France). Peptide concentrations varied from 5 to 25 µM in the “assay buffer”, containing 40 mM sodium phosphate, 0.5 mM EDTA, pH 6.0. The samples, incubated 10 min at the chosen temperature to allow the solutions to reach their equilibrium state, were placed in thermally jacketed cells with a 1 mm path length. The spectra, recorded in 1 nm steps, were averaged over ten scans and corrected for the base line, then presented as differential molar absorptivities per residue, Δε (M^−1 cm^−1), for peptides, and as difference spectra (complex minus DNA), for peptide-DNA complexes. […]

CC[C@H](C)[C@H](NC(=O)[C@H](Cc1ccccc1)NC(=O)[C@@H](NC(=O)[C@H](C)NC(=O)[C@H](CCSC)NC(=O)[C@H](CCC(N)=O)NC(=O)[C@@H](NC(=O)[C@H](C)NC(=O)[C@@H](NC(=O)[C@H](CCCCN)NC(=O)[C@H](CC(C)C)NC(=O)[C@H](Cc1c[nH]cn1)NC(=O)[C@H](CCC(=O)O)NC(=O)[C@H](C)NC(=O)[C@H](CCC(N)=O)NC(=O)[C@H](CC(=O)O)NC(=O)[C@H](CCCNC(=N)N)NC(=O)[C@@H](NC(=O)[C@H](CCC(N)=O)NC(=O)CNC(=O)[C@@H](NC(=O)[C@@H](NC(=O)[C@H](CCCCN)NC(=O)[C@H](CCCCN)NC(=O)[C@H](CC(C)C)NC(=O)[C@H](CCC(=O)O)NC(=O)[C@H](CCCCN)NC(=O)[C@H](CC(N)=O)NC(=O)[C@H](CCSC)NC(=O)[C@H](CO)NC(=O)[C@H](CCC(=O)O)NC(=O)[C@@H](NC(=O)[C@@H](NC(=O)CNC(=O)[C@H](Cc1ccc(O)cc1)NC(=O)c1ccc2c(c1)C(=O)OC21c2ccc(O)cc2Oc2cc(O)ccc21)C(C)C)[C@@H](C)CC)[C@@H](C)CC)[C@@H](C)CC)C(C)C)[C@@H](C)O)C(C)C)C(C)C)C(=O)N[C@@H](Cc1c[nH]cn1)C(=O)N[C@@H](CC(N)=O)C(=O)N[C@@H](CCCCN)C(=O)N[C@@H](CCCCN)C(=O)N[C@@H](C)C(=O)O [fluorescein-grafted HTHi peptide]
Hill number [1]: 11±3 | binding to Asp366Asn-IBD vs wt IBD [2]: only the wt IBD binds HTHi

DQ 168 AEHLKTAVQMAVFIHNY 185KA [INH5, peptide containing both the α5 helix and the turn connecting the α5 helix to the α4 helix]
effect on IN [3]: caused the dissociation of the tetramers and dimers of IN; also recorded: inhibits IN by dissociating the IN dimers and tetramers | concentration midpoint (C0.5) [4]: 168 nM

SQA 149 KLEEMNK156ELKKLLAQVRAQ168 W
Kd [5]: 16 µM | affinity for viral DNA compared with HTHi ([6]; K156 vs HTHi): manifests a greater affinity for viral DNA than peptide HTHi | effect of fluorescein at the 5′ extremity on binding modes [7]: suppressed the high affinity binding mode of K156 but preserved the low affinity mode | Kd ([8]; attachment site on the six outermost bases of viral DNA, read-out: Kd1 (high affinity site)): 0.0021 µM | Kd ([8]; non-specific binding, read-out: Kd2 (low affinity site)): 54 µM

SQG149VIESMNK156ELKKIIGQVRDQ 168 AEHLKTAVQMAVWIHNF185K [wt HTHi]
structure compared with that of the mutant bi-helix ([9]; experiments not shown, method not stated): the structure of the wt bi-helix was similar to that of the mutant

SQG149VVESMNK156ELKKIIGQVRY [α4]
conformation of isolated peptide ([9]; stated in Discussion): mostly displays random conformation | DNA binding (in words) ([6]; isolated peptide, no value): very poor DNA binder; also recorded: completely unable to specifically bind the viral DNA | midpoint of titration curve (C0.5) [10]: 53 ± 5 nM

YG149VIESMNK156ELKKIIGQVRDQ 168 AEHLKTAVQMAVFIHNK 185KA [HTHi]
Kd [11]: 6.6 µM | helix content compared with component peptides α4 and INH5 ([9]; CD, spectra of α4 from ref [43] and of INH5 from ref [30]): helix content of HTHi is greater than that of peptides α4 [43] and INH5 [30] | propensity to form oligomers in solution ([9]; high peptide concentration, CD, pH 6.0): propensity of HTHi to form oligomers in solution at high concentration | helical content ([9]; peptide 6 µM, 40 mM sodium phosphate, 0.5 mM EDTA, pH 6.0, 1 mm path length): 10–15% | helical content (in words) ([9]; peptide 25 µM, 40 mM sodium phosphate, 0.5 mM EDTA, pH 6.0): weak amount of helix | Kd ([12]; read-out: Kd1 (high affinity site)): 50 nM | Kd ([12]; read-out: Kd2 (low affinity, non-specific site)): 1900 nM | Kd ([13]; LTR34f5′ 20 nM, monophasic, fluorescence anisotropy, curve fitting, ±10% uncertainty, 40 mM sodium phosphate, 0.5 mM EDTA, pH 6.0, 5°C): 2900 nM | effect of fluorescein at the 5′ extremity on high affinity binding ([13]; LTR34f5′ vs LTR34fm): The high affinity is abolished | midpoint of titration curve (C0.5) [10]: 104 ± 8 nM | change of helical content on binding LTR34 [14]: practically doubles its helical content when binding to LTR34
